Patent publication US10993437B2, “Anti-microbial polymer incorporating a quaternary ammonium group” (priority 2013, dated 2021)

Assays:
Type in all cases: cell-based
[1] = system: Proteus mirabilis/hauseri; test: Antibiotic disk susceptibility test, rings of inhibition; conditions: for P. hauseri, diameter of ring of inhibition, antimicrobial paper towels: 6 mm paper discs punched from paper towels, antibiotic control discs 10 or 30 ug; for P. hauseri, diameter of ring of inhibition: Mueller-Hinton plate, 18-24 hrs at 37° C., 100 μg of compound per disc, control discs 10 or 30 μg
Description: (§1) Compounds were tested for antibacterial activity, as described in Ma et al. (2011), against pure cultures of Escherichia coli, Pseudomonas aeruginosa, Bacillus cereus, Proteus mirabilis/hauseri, and Staphylococcus aureus, supplied by Ward's Natural Science Ltd. (St. Catherines, Ontario, Canada). All cultures were maintained on Tryptic Soy agar. These cultures were then transferred using an inoculation loop to 10 mL of Tryptic soy broth, and grown at 37° C. for 24 hours. Triplicates of plate and broth cultures were made in case of error or contamination. Using a sterile swab, and aseptic techniques, the bacterial broth inocula were transferred to Mueller-Hinton plates and spread evenly, ensuring that the entire surface was inoculated. They were then left to dry for 3-5 minutes. The following control discs were used: Penicillin (10 μg), Tetracycline (30 μg), Chloramphenicol (30 μg), and Ampicillin (10 μg). Four antibiotic discs containing different compounds were placed equidistant from each other on a Mueller-Hinton plate. […] If clear rings of inhibition were present, the diameter was measured twice using a caliper. […] The paper towels were then allowed to dry. After, 5 cm from each edge of the paper towels was cut out (to prevent edge areas where spraying might have been irregular being tested), and from the remaining paper towels, a single hole punch machine was used to punch 6 mm paper discs from each of the paper towels.

[2] = system: Pseudomonas aeruginosa; test: as above; conditions: for P. aeruginosa, diameter of ring of inhibition: Mueller-Hinton plate, 18-24 hrs at 37° C., 100 μg of compound per disc, control discs 10 or 30 μg
Description: as §1

[3] = system: Escherichia coli; test: as above; conditions: for E. coli, diameter of ring of inhibition, antimicrobial paper towels: 6 mm paper discs punched from paper towels, antibiotic control discs 10 or 30 ug; for E. coli, diameter of ring of inhibition: Mueller-Hinton plate, 18-24 hrs at 37° C., 100 μg of compound per disc, control discs 10 or 30 μg
Description: as §1

[4] = system: Bacillus cereus; test: as above; conditions: for B. cereus, diameter of ring of inhibition, antimicrobial paper towels: 6 mm paper discs punched from paper towels, antibiotic control discs 10 or 30 ug; for B. cereus, diameter of ring of inhibition: Mueller-Hinton plate, 18-24 hrs at 37° C., 100 μg of compound per disc, control discs 10 or 30 μg
Description: as §1

[5] = system: Staphylococcus aureus; test: as above; conditions: for S. aureus, diameter of ring of inhibition, antimicrobial paper towels: 6 mm paper discs punched from paper towels, antibiotic control discs 10 or 30 ug; for S. aureus, diameter of ring of inhibition: Mueller-Hinton plate, 18-24 hrs at 37° C., 100 μg of compound per disc, control discs 10 or 30 μg
Description: as §1

[6] = system: Aspergillus fumigatus; test: Antifungal disk susceptibility test, rings of inhibition; conditions: for A. fumigatus, diameter of ring of inhibition: Sabouraud plate, 18-24 hrs at 35° C., 100 μg of compound per disc, Amphotericin B 100 ug or 20 μg
Description: (§2) Adapted from Messer et al., (2007), this protocol was used to test novel compounds for antifungal properties against yeasts and fungi. Compounds were tested for antifungal activity against pure cultures of Saccharomyces cerevisiae, Candida albicans supplied by Ward's Natural Science Ltd. and Aspergillus niger and Aspergillus fumigatus supplied by […]. (Inverness Medical, Ottawa, Ontario, Canada). All cultures were maintained on Sabouraud agar. […] The cultures of A. niger and A. fumigatus were transferred, using an inoculation loop, to new Sabouraud agar and grown for 48 hrs. at 27° C., and 35° C. respectively, to cause sporulation. Triplicates of all the plates and broth cultures were made in case of error or contamination. Using a sterile swab, and aseptic techniques, the cell suspension of S. cerevisiae, and C. albicans were transferred to Sabouraud agar plates and spread evenly, ensuring that the entire surface was inoculated. They were then left to dry for 10 minutes. […] The 0.2% Tween 80 reduces the hydrophobicity of the conidia, allowing the spores to be readily suspended (Messer et al., 2007). Alternatively two small circles containing fungal growth of the A Niger or A Fumigatus fungi were cut from the agar plates, and using a glass/PTFE tissue homoginzer, were mixed and homogenized with 5 ml of sterile MilliQ water to create a suspension of fungal spores. Using a sterile swab, and aseptic techniques, the spore inocula of A. niger and A. fumigatus were transferred to Sabouraud agar plates and spread evenly, ensuring that the entire surface was inoculated. They were then left to dry for 10 minutes. Amphotericin B (100 μg) in acetone was used as a control. Four antibiotic discs containing different compounds were place equidistant apart on each Sabouraud plate. […] If clear rings of inhibition were present, the diameter was measured twice using a caliper. Halos indicated partial inhibition of growth (Hicks et al., 2008). […] The paper towels were then allowed to dry. After, 5 cm from each edge of the paper towels was cut out (to prevent edge areas where spraying might have been irregular being tested), and from the remaining paper towels, a single hole punch machine was used to punch 6 mm paper discs from each of the paper towels.

[7] = system: Aspergillus niger; test: as above; conditions: for A. niger, diameter of ring of inhibition: Sabouraud plate, 48 hrs at room temperature, 100 μg of compound per disc, Amphotericin B 100 ug or 20 μg
Description: as §2

[8] = system: Saccharomyces cerevisiae; test: as above; conditions: for S. cerevisiae, diameter of ring of inhibition: Sabouraud plate, 18-24 hrs at 37° C., 100 μg of compound per disc, Amphotericin B 50 ug or 20 μg
Description: as §2, with “Amphotericin B (100 μg) in acetone was used as a control.” left out

[9] = system: Candida albicans; test: as above; conditions: for C. albicans, diameter of ring of inhibition: Sabouraud plate, 18-24 hrs at 37° C., 100 μg of compound per disc, Amphotericin B 50 ug or 20 μg
Description: as §2, with “Amphotericin B (100 μg) in acetone was used as a control.” left out

[10] = 6 mm paper discs punched from paper towels, PAA-BZ-H 100 μg of solution onto paper discs, Amphotericin B 20 ug

Row | Compound | P. hauseri, diameter of ring of inhibition, antimicrobial paper towels [1] | P. hauseri, diameter of ring of inhibition [1] | P. aeruginosa, diameter of ring of inhibition, antimicrobial paper towels ([2]; 6 mm paper discs punched from paper towels, antibiotic control discs 10 or 30 ug) | P. aeruginosa, diameter of ring of inhibition [2] | E. coli, diameter of ring of inhibition, antimicrobial paper towels [3] | E. coli, diameter of ring of inhibition [3] | B. cereus, diameter of ring of inhibition, antimicrobial paper towels [4] | B. cereus, diameter of ring of inhibition [4] | S. aureus, diameter of ring of inhibition, antimicrobial paper towels [5] | S. aureus, diameter of ring of inhibition [5] | A. fumigatus, diameter of ring of inhibition [6] | A. niger, diameter of ring of inhibition [7] | S. cerevisiae, diameter of ring of inhibition [8] | C. albicans, diameter of ring of inhibition [9] | A. fumigatus, diameter of ring of inhibition, antimicrobial paper towels [6, 10] | A. niger, diameter of ring of inhibition, antimicrobial paper towels [7, 10] | S. cerevisiae, diameter of ring of inhibition, antimicrobial paper towels [8, 10] | C. albicans, diameter of ring of inhibition, antimicrobial paper towels [9, 10]
1 | CN(C)[C@@H]1C(O)=C(C(N)=O)C(=O)[C@@]2(O)C(O)=C3C(=O)c4c(O)cccc4[C@@](C)(O)[C@H]3C[C@@H]12 [Compound 10, Tetracycline] | 29.5 | 29.50 | 10.75 | 10.75 | 20.45 | 20.45 | 20.3 | 20.30 | 23.3 | 23.30 | – | – | – | – | – | – | – | –
2 | O=C(N[C@H](CO)[C@H](O)c1ccc([N+](=O)[O-])cc1)C(Cl)Cl [Compound 11, Chloramphenicol] | 16.5 | 16.50 | – | – | 32.25 | 32.25 | 26.3 | 26.30 | 17.7 | 17.70 | – | – | – | – | – | – | – | –
3 | CC1(C)S[C@@H]2[C@H](NC(=O)[C@H](N)c3ccccc3)C(=O)N2[C@H]1C(=O)O [Compound 12, Ampicillin] | 19 | 19.00 | – | – | 17.13 | 17.13 | 13.5 | 13.50 | 28.8 | 28.80 | – | – | – | – | – | – | – | –
4 | C[C@@H]1[C@H](O)[C@@H](C)/C=C/C=C/C=C/C=C/C=C/C=C/C=C/[C@H](O[C@@H]2O[C@H](C)[C@@H](O)[C@H](N)[C@@H]2O)C[C@@H]2O[C@](O)(C[C@@H](O)C[C@@H](O)[C@H](O)CC[C@@H](O)C[C@@H](O)CC(=O)O[C@H]1C)C[C@H](O)[C@H]2C(=O)O [Compound 13, Amphotericin B] | – | – | – | – | – | – | – | – | – | – | 11.19 | 17.86 | 8.39 | 9.35 | – | – | – | –
5 | C[C@@H]1[C@H](O)[C@@H](C)/C=C/C=C/C=C/C=C/C=C/C=C/C=C/[C@H](O[C@@H]2O[C@H](C)[C@@H](O)[C@H](N)[C@@H]2O)C[C@@H]2O[C@](O)(C[C@@H](O)C[C@@H](O)[C@H](O)CC[C@@H](O)C[C@@H](O)CC(=O)O[C@H]1C)C[C@H](O)[C@H]2C(=O)O [Compound 14, Amphotericin B] | – | – | – | – | – | – | – | – | – | – | 7.80 | 8.80 | 10.80 | 11.00 | 9.4 | 8.7 | 13.4 | 9.7
6 | CCCCCCCCCCCCCC[N+](C)(C)Cc1ccccc1.[Cl-] [Compound 15, Benzyldimethyltetradecylammonium chloride] | – | 12.63 | – | 8.13 | – | 12.70 | – | 14.30 | – | 13.43 | 8.13 | 10.97 | 11.33 | 7.48 | – | – | – | –
7 | Penicillin [Compound 9] | 11 | 11.00 | – | – | 15.91 | 15.91 | – | – | 31.5 | 31.50 | – | – | – | – | – | – | – | –
